From patent US9221838B2, “Inhibitors of AKT activity” (ALMAC DISCOVERY LIMITED, priority 2009, dated 2015) come the findings set out here.

Common to all, as to format: biochemical
One assay deals with T1, AKT1 (Homo sapiens, UniProt P31749).
T1 construct: purchased SignalChem
The assay can be described thus: AKT Kinase Assay (IMAP fluorescent polarisation) vs AKT1. The procedure:
(§1) Testing of the compounds was performed using an AKT Kinase Assay:
(§2) Activated AKT isoforms 1, 2 and 3 were assayed utilising a 5′ FAM Crosstide (Seq. GRPRTSSFAEG-OH)(SEO ID NO: 1). The extent of kinase phosphorylation was determined by fluorescent polarisation using IMAP progressive binding reagent, which introduces binding beads which allow the reagent to specifically bind to phosphate residues via covalent co-ordination complex bonds.
(§3) iMAP binding solution stops Crosstide/kinase interaction and specifically binds phosphorylated substrates. The degree of phosphorylation is determined by fluorescent polarisation (excitation 485 nm; emission 528 nm) or the reduction in speed of rotation of the excited substrate.
(§4) The following materials were used in the assay: • a) Activated AKT isoforms (SignalChem.) dissolved in Complete Reaction buffer at a pre-determined concentration selected so that the assay was carried out in the linear range. • b) AKT substrate peptide: FAM Crosstide (R7110) Molecular Devices, diluted in complete reaction buffer. • c) iMAP Progressive Screening Express Kit (R8127) Molecular Devices • d) Complete Reaction Buffer containing 0.1% BSA, 10 mM Tris-HCl, 10 mM MgCl2, 0.05% NaN3 and 0.01% phosphate free BSA, 1 mM DTT • e) Progressive Binding Solution containing 75% Buffer A, 25% Buffer B and low volume Binding Reagent which contains the binding entity for the assay • f) ATP diluted in complete reaction buffer • g) Black polystyrene 384 well assay plates (Nunc). • h) Biotek Synergy 4 Hybrid Plate reader.
(§5) 5 μl of test compound was dissolved in DMSO (Sigma Aldrich) and serially diluted in complete reaction buffer to give a fourteen point half log dose response and plated into 384 well black plates. The compound was incubated at room temperature with activated AKT isoform ([…] ) at the pre-determined concentration, for 45 minutes.
(§6) 2.5 μl of ATP solution mixed with 2.5 μl of AKT substrate peptide (FAM Crosstide (R7110) Molecular Devices) were dispensed into each well and the plate centrifuged at 1000 rpm for 20 seconds to ensure homogenous mixing of reagents. The reaction mix was incubated in the dark for one hour at room temperature.
(§7) The kinase reaction was stopped by the addition of Progressive Binding Solution and the mixture allowed to equilibrate for one hour in the dark, at room temperature.
(§8) The fluorescent polarisation generated in each well was determined using a […] Synergy 4 Hybrid plate reader. In brief, each reaction solution was excited at 485 nm with the emission measured at 528 nm in both the parallel and perpendicular pathway.
(§9) The polarisation value generated in each well was calculated by Gen5 software (Biotek) and the % inhibition of kinase activity compared to vehicle control was calculated via GraphPad Prism. IC50 values for each compound were calculated by non-linear regression analysis using Prism software.
(§10) All plates were internally controlled by two methods. Firstly, by calculating the signal:noise ratio; based on kinase polarisation without inhibitor and polarisation generated by complete reaction buffer in the absence of activated kinase. Secondly by determining IC50 values generated by known inhibitors of the AKT isoforms.

A further assay deals with T2, AKT2 (Homo sapiens, UniProt P31751).
T2 construct: purchased SignalChem
T2 sequence (P31751 whole entry): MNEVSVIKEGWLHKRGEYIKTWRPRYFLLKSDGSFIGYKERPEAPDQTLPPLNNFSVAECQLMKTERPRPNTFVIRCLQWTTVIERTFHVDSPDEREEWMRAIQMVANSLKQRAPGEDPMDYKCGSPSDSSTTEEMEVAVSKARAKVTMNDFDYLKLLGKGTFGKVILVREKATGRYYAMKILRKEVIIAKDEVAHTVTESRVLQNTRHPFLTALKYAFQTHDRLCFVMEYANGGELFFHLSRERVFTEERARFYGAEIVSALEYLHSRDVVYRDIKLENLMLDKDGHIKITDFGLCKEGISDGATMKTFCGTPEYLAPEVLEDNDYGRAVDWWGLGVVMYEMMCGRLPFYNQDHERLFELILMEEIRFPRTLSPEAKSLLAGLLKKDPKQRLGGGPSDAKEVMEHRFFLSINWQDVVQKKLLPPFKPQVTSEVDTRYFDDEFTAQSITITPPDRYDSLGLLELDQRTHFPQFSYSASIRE
The assay can be described thus: AKT Kinase Assay (IMAP fluorescent polarisation) vs AKT2. How it is done: as §1, §2, §3, §4, §5, §6, §7, §8, §9, §10

Another assay has as its target T3, AKT3 (Homo sapiens, UniProt Q9Y243).
T3 construct: purchased SignalChem
The assay can be described thus: AKT Kinase Assay (IMAP fluorescent polarisation) vs AKT3. The procedure: as §1, §2, §3, §4, §5, §6, §7, §8, §9, §10

T1 sequence (P31749 whole entry): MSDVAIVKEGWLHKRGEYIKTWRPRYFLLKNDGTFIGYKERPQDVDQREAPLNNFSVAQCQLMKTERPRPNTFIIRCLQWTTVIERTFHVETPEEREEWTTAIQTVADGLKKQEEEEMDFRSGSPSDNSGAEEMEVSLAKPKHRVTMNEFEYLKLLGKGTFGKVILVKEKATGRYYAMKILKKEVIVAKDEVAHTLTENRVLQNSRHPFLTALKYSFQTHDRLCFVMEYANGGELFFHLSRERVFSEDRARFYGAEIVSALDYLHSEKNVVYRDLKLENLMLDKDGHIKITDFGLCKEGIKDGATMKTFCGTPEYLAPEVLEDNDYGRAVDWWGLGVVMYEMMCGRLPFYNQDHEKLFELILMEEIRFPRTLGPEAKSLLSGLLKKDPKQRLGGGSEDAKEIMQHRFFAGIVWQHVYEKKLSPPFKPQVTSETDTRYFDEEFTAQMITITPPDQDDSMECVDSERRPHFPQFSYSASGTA
T3 sequence (Q9Y243 whole entry): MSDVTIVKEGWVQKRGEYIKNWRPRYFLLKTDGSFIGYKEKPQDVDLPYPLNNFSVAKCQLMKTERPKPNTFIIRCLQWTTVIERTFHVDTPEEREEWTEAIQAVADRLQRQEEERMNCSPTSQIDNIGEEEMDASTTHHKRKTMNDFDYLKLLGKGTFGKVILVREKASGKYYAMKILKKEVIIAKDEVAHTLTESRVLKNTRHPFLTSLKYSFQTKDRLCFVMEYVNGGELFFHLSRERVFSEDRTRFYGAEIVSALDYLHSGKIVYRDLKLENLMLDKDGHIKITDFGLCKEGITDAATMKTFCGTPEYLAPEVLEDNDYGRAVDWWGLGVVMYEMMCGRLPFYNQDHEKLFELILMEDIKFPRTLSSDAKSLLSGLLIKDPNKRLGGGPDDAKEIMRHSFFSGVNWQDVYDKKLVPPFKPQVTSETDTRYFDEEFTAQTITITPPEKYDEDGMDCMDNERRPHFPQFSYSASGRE

As to `CN1Cc2nc(-c3ccc(C4(N)CCC4)cc3)c(-c3ccccc3)cc2N(C)C1=O` [Example 89, 6-(4-(1-aminocyclobutyl)phenyl)-1,3-dimethyl-7-phenyl-3,4-dihydropyrido[3,2-d]pyrimidin-2(1H)-one], the values for the IC50 at AKT1, on AKT2 and on AKT3 were 0.1 to 1 µM, 0.1 to 1 µM and 1 to 10 µM, respectively.
For the compound `C#CCN1C(=O)COc2nc(-c3ccc(C4(N)CCC4)cc3)c(-c3ccccc3)cc21` [Example 32, 6-(4-(1-aminocyclobutyl)phenyl)-7-phenyl-1-(prop-2-yn-1-yl)-1H-pyrido[2,3-b][1,4]oxazin-2(3H)-one], the IC50 was 0.1 to 1 µM at AKT1, 0.1 to 1 µM on AKT2 and above 10 µM on AKT3.
In the case of `CC(C)N1C(=O)COc2nc(-c3ccc(C4(N)CCC4)cc3)c(-c3ccccc3)cc21` [Example 57, 6-(4-(1-aminocyclobutyl)phenyl)-1-isopropyl-7-phenyl-1H-pyrido[2,3-b][1,4]oxazin-2(3H)-one], the IC50 at AKT1 was 1 to 10 µM; at AKT2 it was 0.1 to 1 µM; at AKT3, 1 to 10 µM.
Consider `NC1(c2ccc(-c3nc4c(cc3-c3ccccc3)N(Cc3cscn3)C(=O)CO4)cc2)CCC1` [Example 59, 6-(4-(1-aminocyclobutyl)phenyl)-7-phenyl-1-(thiazol-4-ylmethyl)-1H-pyrido[2,3-b][1,4]oxazin-2(3H)-one], for which the IC50 at AKT1 was in the range of 1 to 10 µM; on AKT2, 0.1 to 1 µM; at AKT3, 1 to 10 µM.
As for `NC1(c2ccc(-c3nc4c(cc3-c3ccccc3)NC(=O)CCN4)cc2)CCC1` [Example 104, 7-(4-(1-aminocyclobutyl)phenyl)-8-phenyl-4,5-dihydro-1H-pyrido[2,3-b][1,4]diazepin-2(3H)-one], the IC50 was 0.1 to 1 µM on AKT1, 1 to 10 µM on AKT2 and above 10 µM on AKT3.
On to `NC1(c2ccc(-c3nc4c(cc3-c3ccccc3)-n3c(nnc3-c3ccccn3)CO4)cc2)CCC1` [Example 130, 1-(4-(8-phenyl-1-(pyridin-2-yl)-4H-pyrido[2,3-b][1,2,4]triazolo[4,3-d][1,4]oxazin-7-yl)phenyl)cyclobutanamine], for which the IC50 at AKT1 is 0.1 to 1 µM; at AKT2, above 10 µM; at AKT3, above 10 µM.
As for `N#CCCCCN1C(=O)COc2nc(-c3ccc(C4(N)CCC4)cc3)c(-c3ccccc3)cc21` [Example 66, 5-(6-(4-(1-aminocyclobutyl)phenyl)-2-oxo-7-phenyl-2,3-dihydro-1H-pyrido[2,3-b][1,4]oxazin-1-yl)pentanenitrile], the results for the IC50 on AKT1, at AKT2 and on AKT3 were 0.1 to 1 µM, 0.1 to 1 µM and 1 to 10 µM, respectively.
On to `C[C@]1(O)C[C@@](N)(c2ccc(-c3nc4c(cc3-c3ccccc3)-n3c(n[nH]c3=O)CO4)cc2)C1` [Example 79, 7-(4-((1r,3r)-1-amino-3-hydroxy-3-methylcyclobutyl)phenyl)-8-phenyl-2,4-dihydro-1H-pyrido[2,3-b][1,2,4]triazolo[4,3-d][1,4]oxazin-1-one], for which the IC50 at AKT1 is at most 0.1 µM; on AKT2, 0.1 to 1 µM; at AKT3, 1 to 10 µM.
For the compound `CCN1CCc2nc(-c3ccc(C4(N)CCC4)cc3)c(-c3ccccc3)cc2C1` [Example 27, 1-(4-(6-ethyl-3-phenyl-5,6,7,8-tetrahydro-1,6-naphthyridin-2-yl)phenyl)cyclobutanamine], the figures for the IC50 at AKT1, at AKT2 and at AKT3 were 1 to 10 µM, above 10 µM and above 10 µM, respectively.
With `NC1(c2ccc(-c3nc4c(cc3-c3ccccc3)N(Cc3cnc[nH]3)C(=O)CO4)cc2)CCC1` [Example 53, 1-((1H-imidazol-5-yl)methyl)-6-(4-(1-aminocyclobutyl)phenyl)-7-phenyl-1H-pyrido[2,3-b][1,4]oxazin-2(3H)-one], the IC50 at AKT1, at AKT2 and on AKT3 was 1 to 10 µM in each case.

For orientation: IC50 means the concentration that inhibits the measured activity by half.
